# PMC9581852, “Organic Cation Transporter-Mediated Accumulation of Quinolinium Salts in the LV Myocardium of Rodents” (Molecular Imaging and Biology, 2022)
# What was measured:
# Type in all cases: cell-based
# [1] = target: T1, hOCT3 (organic cation transporter 3) (Homo sapiens, UniProt O75751); test: inhibition of […]FEtQ uptake in HEK293 cells stably expressing hOCT3
# T1 construct: gene SLC22A3
# T1 sequence (O75751 1-556): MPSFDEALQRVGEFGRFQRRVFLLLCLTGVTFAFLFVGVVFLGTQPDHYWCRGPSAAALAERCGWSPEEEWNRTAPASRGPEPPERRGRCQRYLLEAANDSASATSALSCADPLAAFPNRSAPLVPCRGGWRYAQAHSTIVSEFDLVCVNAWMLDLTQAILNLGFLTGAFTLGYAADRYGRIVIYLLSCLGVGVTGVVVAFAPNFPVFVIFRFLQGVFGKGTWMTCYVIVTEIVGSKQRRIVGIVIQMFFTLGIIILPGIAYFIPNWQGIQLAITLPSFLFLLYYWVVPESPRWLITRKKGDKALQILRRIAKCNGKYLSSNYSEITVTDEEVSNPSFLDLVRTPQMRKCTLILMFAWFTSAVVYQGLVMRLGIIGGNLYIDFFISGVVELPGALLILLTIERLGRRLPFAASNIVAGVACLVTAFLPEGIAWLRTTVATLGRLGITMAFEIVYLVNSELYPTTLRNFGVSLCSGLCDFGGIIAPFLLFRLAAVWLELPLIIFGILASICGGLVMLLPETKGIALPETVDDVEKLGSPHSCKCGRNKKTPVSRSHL
# [2] = target: T2, hOCT2 (organic cation transporter 2) (Homo sapiens, UniProt O15244); test: in vivo PET/CT blocking of […]FEtQ uptake in HEK-hOCT2 xenografts in mice
# T2 construct: gene SLC22A2
# T2 sequence (O15244 1-555): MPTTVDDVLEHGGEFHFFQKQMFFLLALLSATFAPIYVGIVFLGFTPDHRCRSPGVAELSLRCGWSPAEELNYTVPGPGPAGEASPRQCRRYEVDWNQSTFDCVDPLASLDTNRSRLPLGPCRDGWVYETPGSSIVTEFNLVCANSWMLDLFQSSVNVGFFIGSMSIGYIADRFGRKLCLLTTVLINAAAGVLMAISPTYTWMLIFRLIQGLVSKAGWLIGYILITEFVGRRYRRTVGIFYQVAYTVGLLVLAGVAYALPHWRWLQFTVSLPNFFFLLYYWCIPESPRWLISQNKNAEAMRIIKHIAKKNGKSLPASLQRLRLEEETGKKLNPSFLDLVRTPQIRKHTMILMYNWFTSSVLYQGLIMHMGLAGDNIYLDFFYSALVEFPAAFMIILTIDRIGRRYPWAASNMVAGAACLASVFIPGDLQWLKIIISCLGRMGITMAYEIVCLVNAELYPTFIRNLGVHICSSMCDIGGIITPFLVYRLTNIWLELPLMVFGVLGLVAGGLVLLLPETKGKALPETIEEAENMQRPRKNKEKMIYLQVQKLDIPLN
# [3] = target: T1, hOCT3 (organic cation transporter 3); test: radioligand saturation binding/uptake in intact HEK293-hOCT3 cells, empty-vector cells as non-specific binding
structure (smiles),measurement,setting,value
C[C@]12C[C@H](O)[C@H]3[C@@H](CCC4=CC(=O)CC[C@@]43C)[C@@H]1CC[C@@H]2C(=O)CO [corticosterone],IC50,[1],0.05 to 0.5 µM
CCN1/C(=C/c2ccc3ccccc3[n+]2CC)C=Cc2ccccc21 [decynium 22],% lower peak tumor uptake at 0.075 mg/kg,[2],40 % lower peak tumor uptake at 0.075 mg/kg
FCC[n+]1cccc2ccccc21 [[18F]FEtQ],Kd,[3],214 ± 114 µM
